Series [1] concerns the target T1, DynF (Micromonospora chersina, UniProt B2BM43).
T1 construct: full-length, N-terminal 6xHis tag cleaved with TEV protease (one extra Ser before Met1); E. coli BL21 (DE3); dimer
T1 sequence (B2BM43 1-210): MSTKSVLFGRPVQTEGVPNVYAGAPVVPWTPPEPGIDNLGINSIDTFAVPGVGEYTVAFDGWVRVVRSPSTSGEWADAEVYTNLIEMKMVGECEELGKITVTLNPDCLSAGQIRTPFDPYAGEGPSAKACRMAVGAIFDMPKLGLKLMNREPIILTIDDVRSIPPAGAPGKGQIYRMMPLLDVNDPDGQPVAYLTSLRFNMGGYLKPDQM
The series is described as follows: X-ray crystal structure ([…] Å); GC-MS of acetonitrile extract. Format: binding. As to conditions: co-purified from E. coli; bound inside the beta-barrel cavity of each protomer.

Series [2] concerns the molecule itself. The series is described as follows: crystal structure; sitting-drop vapor diffusion, 293 K, 25%(w/v) PEG 1500, 0.1 M PCB buffer pH 7.0; space group C222(1); two molecules in the asymmetric unit; palmitic acid bound.

The source of these data is paper PMC8725005, “The crystal structure of DynF from the dynemicin-biosynthesis pathway of Micromonospora chersina” (Acta Crystallographica. Section F, Structural Biology …, 2022).

With `CCCCCCCCCCCCCCCC(=O)O` [palmitic acid], the “X-ray crystal structure (1.50 Å); GC-MS of acetonitrile extract” value in series [1] is given as “confirmed by gas chromatography–mass spectrometry (GC-MS) as palmitic acid”.

B1: DynF from Micromonospora chersina ATCC53710 (natural protein)
chain: T1 sequence (B2BM43 1-210)
notes: DynF, Micromonospora chersina ATCC53710, protein of unknown function from the dynemicin biosynthetic gene cluster; GenBank ACB47058.1; the insert primers run from the ATG to the TGA stop codon; The tag mgsshhhhhhenlyfq/s was cut by TEV protease at the slash, so one serine of the tag stays before Met1 (211 residues a chain; 418 of 422 residues built for two chains); Vector pNIC28-Bsa4 (Addgene …)
With B1, the binding result in series [2] was “binds”.
